Patent US9023789B2, “Amylin analogs and pharmaceutical compositions thereof” (Novo Nordisk A/S, priority 2012, dated 2015)
pIC50: −log10 of the molar value. Where two headings read alike, the source gives them in different places. Numbered stars: 1 amine (or outer) side, 2 acyl side, 3 side chain; on linkers, the order of the positions; unused ones are H or OH. Bridge positions count the residues as written; N and C are the ends. Peptide text beside a SMILES is read from it. * marks the point of attachment. C20 diacid = O=C(O)CCCCCCCCCCCCCCCCCCC(=O)*; γGlu = O=C(O)[C@H](CCC(=O)[*:2])N[*:1]

What was measured:
[1] = biological target: T1, human amylin 3(a) receptor (human calcitonin receptor + RAMP-3) in BHK570 cells (Homo sapiens, UniProt O60896+P30988); assay: ASSAY (II)a functional assay, human amylin receptor (CRE luciferase); type: cell-based
T1 construct: expressed in transfected cells
Description: 1. Luciferase Assay Outline
Activation of calcitonin and amylin (coexpression of calcitonin receptor and receptor activity modifying proteins (RAMP)) receptors lead to increased intracellular concentrations of cAMP. Consequently, transcription is activated by promoters containing multiple copies of the cAMP response element (CRE). It is thus possible to measure amylin activity by the use of a CRE luciferase reporter gene introduced into BHK cells also expressing calcitonin or amylin receptors.
2. Construction of Calcitonin (a)- and Amylin 3(a)-Receptor/CRE-Luc Cell Line.
The cell line was further transfected with RAMP-3, using standard methods. This turns the calcitonin receptor into an amylin 3(a) receptor. Methotrexate, Neomycin, and Hygromycin are selection markers for luciferase, the calcitonin receptor, and RAMP-3, respectively.
To perform activity assays, BHK calcitonin (a) receptor- or amylin 3(a)-receptor/CRE-luc cells were seeded in white 96 well culture plates at a density of about 20.000 cells/well. […] After incubation overnight at 37° C. and 5% CO2, the growth medium was replaced by 50 μl/well assay medium (DMEM (without phenol red), Glutamax™, 10% FBS, and 10 mM Hepes, pH 7.4). Further, 50 μl/well of standard or sample in assay buffer were added. After 3 hours incubation at 37° C. and 5% CO2, the assay medium with standard or sample were removed and replaced by 100 μl/well PBS. Further, 100 μl/well LucLite™ was added. The plates were sealed and incubated at room temperature for 30 minutes. Finally, luminescence was measured on a TopCounter (Packard) in SPC (single photon counting) mode.

[2] = biological target: T2, human amylin receptor (membranes from Amylin 3(a)/CRE-luc cells) (Homo sapiens, UniProt O60896+P30988); assay: ASSAY (V) binding to the human amylin receptor (SPA, 125I-rat amylin);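 further: competition binding of cell membranes (35 ng/µL) mixed with SPA beads in 384-well plates at 40 µL total volume, read by scintillation counting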
T2 construct: expressed in transfected cells
T2 sequence (P30988 25-474): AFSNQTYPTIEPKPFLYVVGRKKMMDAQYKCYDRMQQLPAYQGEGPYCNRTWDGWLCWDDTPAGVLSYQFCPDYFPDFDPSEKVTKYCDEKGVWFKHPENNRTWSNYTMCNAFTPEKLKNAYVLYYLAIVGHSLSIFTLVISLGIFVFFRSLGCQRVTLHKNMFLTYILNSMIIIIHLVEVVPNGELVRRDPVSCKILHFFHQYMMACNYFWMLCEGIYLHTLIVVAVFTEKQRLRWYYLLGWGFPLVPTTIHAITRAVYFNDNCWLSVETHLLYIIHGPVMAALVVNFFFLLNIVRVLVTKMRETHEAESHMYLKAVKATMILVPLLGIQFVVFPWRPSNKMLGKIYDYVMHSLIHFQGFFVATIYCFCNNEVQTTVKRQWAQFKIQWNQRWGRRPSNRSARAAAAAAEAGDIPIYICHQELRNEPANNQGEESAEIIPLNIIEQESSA
T2 sequence (O60896 24-148 partner): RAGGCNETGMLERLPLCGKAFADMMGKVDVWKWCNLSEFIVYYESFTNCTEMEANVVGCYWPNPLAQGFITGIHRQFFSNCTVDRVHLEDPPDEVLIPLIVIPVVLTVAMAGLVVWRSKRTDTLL

[3] = biological target: T3, rat amylin receptor (rat calcitonin receptor + rat RAMP 3) (Rattus norvegicus, UniProt P32214+Q9JJ73); assay: ASSAY (VI) binding to the rat amylin receptor; conditions: Table 7
T3 construct: expressed in transfected cells; host or cells: BHK tk'ts 13 (transient, FuGENE 6), membranes
T3 sequence (P32214 25-479 isoform P32214-2 limits assumed): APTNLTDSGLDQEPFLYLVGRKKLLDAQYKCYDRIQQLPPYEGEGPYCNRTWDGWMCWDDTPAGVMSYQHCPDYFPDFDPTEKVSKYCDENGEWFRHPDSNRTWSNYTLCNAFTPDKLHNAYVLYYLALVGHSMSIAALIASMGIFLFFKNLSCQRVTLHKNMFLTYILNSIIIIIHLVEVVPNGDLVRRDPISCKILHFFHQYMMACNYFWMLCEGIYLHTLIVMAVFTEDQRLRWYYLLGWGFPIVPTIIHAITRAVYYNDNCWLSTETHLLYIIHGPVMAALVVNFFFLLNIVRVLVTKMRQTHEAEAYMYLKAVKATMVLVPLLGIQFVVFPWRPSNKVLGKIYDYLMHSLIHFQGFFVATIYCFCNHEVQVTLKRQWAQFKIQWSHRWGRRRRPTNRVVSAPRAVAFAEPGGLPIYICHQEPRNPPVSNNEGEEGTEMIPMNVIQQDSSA
T3 sequence (Q9JJ73 23-147 partner): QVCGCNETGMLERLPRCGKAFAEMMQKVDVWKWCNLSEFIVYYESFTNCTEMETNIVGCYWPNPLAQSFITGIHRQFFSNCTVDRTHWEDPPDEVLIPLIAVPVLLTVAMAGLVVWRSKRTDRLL
Procedure: Assay (VI)—Determination of the Binding to the Rat Amylin Receptor […] The BHK tk′ts 13 cells were transiently transfected with rat calcitonin receptor using FuGENE® 6 (Roche), according to the manufacturer's recommendations. […] Approximately 48 hours after transfection, the cells were harvested and membranes were prepared.

[4] = ASSAY (III) ThT fibrillation assay for physical stability; type: physicochemical
Description: Assay (III)—ThT Fibrillation Assays for the Assessment of Physical Stability of Protein Formulations Low physical stability of a polypeptide may lead to amyloid fibril formation, which is observed as well-ordered, thread-like macromolecular structures in the sample eventually resulting in gel formation. This has traditionally been measured by visual inspection of the sample. However, that kind of measurement is very subjective and depending on the observer. Therefore, the application of a small molecule indicator probe is much more advantageous. Thioflavin T (ThT) is such a probe and has a distinct fluorescence signature when binding to fibrils [Naiki et al. (1989) Anal. […] LeVine (1999) Methods. Enzymol. […], 274-284]. The time course for fibril formation can be described by a sigmoidal curve with the following expression [Nielsen et al. (2001) Biochemistry 40, 6036-6046]; […] Here, F is the ThT fluorescence at the time t. The constant t0 is the time needed to reach 50% of maximum fluorescence. […] Few of those intermediates nucleate to form a template onto which further intermediates may assembly and the fibrillation proceeds. The lag-time corresponds to the interval in which the critical mass of nucleus is built up and the apparent rate constant is the rate with which the fibril itself is formed. Sample Preparation Samples were prepared freshly before each assay. Each sample composition is described in each example. The pH of the sample was adjusted to the desired value using appropriate amounts of concentrated NaOH and HClO4 or HCl. Thioflavin T was added to the samples from a stock solution in H2O to a final concentration of 1 μM. Sample aliquots of 200 μl were placed in a 96 well microtiter plate (Packard OptiPlate™96, white polystyrene). Usually, four or eight replica of each sample (corresponding to one test condition) were placed in one column of wells. The plate was sealed with Scotch Pad (Qiagen). Incubation and Fluorescence Measurement Incubation at given temperature, shaking and measurement of the ThT fluorescence emission were done in a Fluoroskan Ascent FL fluorescence platereader or Varioskan platereader (Thermo Labsystems). The temperature was adjusted to 37° C. The orbital shaking was adjusted to 960 rpm with an amplitude of 1 mm in all the presented data. Fluorescence measurement was done using excitation through a 444 nm filter and measurement of emission through a 485 nm filter. Each run was initiated by incubating the plate at the assay temperature for 10 min. The plate was measured every 20 minutes for a desired period of time. Between each measurement, the plate was shaken and heated as described. Data Handling The measurement points were saved in Microsoft Excel format for further processing and curve drawing and fitting was performed using GraphPad Prism. The background emission from ThT in the absence of fibrils was negligible. The data points are typically a mean of four or eight samples and shown with standard deviation error bars. Only data obtained in the same experiment (i.e. samples on the same plate) are presented in the same graph ensuring a relative measure of fibrillation between experiments. The data set may be fitted to Eq. […] However, since full sigmodial curves in this case are not always achieved during the measurement time, the degree of fibrillation is expressed as ThT fluorescence tabulated as the mean of the samples and shown with the standard deviation at various time points. Measurement of Initial and Final Concentrations The polypeptide concentration in each of the tested formulations were measured both before application in the ThT fibrillation assay (“Initial”) and after completion of the ThT fibrillation (“After ThT assay”). Concentrations were determined by reverse HPLC methods using a pramlintide standard as a reference. Before measurement after completion 150 μl was collected from each of the replica and transferred to an Eppendorf tube. These were centrifuged at 30000 G for 40 mins. […]

[5] = ASSAY (IV) determination of solubility; type: physicochemical
Procedure: Assay (IV)—Determination of Solubility
The polypeptide was dissolved in water at −500 nmol/ml and mixed 1:1 with a series of buffers (100 mM glycylglycine pH 3.0, 100 mM glycylglycine pH 4.0, 100 mM glycylglycine pH 5.0, 100 mM bistrispropane pH 6.0, 100 mM bistrispropane pH 6.5, 100 mM bistrispropane pH 7.0, 100 mM bistrispropane pH 7.5, 100 mM bistrispropane pH 8.0). After 18 hours at room temperature the samples were centrifuged and the polypeptide concentration determined by UPLC.

[6] = hCTR funct. EC50 over hAmylin-R funct. EC50
[7] = human functional selectivity: hCTR funct. EC50 / hAmylin-R funct. EC50
[8] = Table 5, selectivity, hCTR bind IC50 / hAmylin-R bind IC50
[9] = Table 7, human binding selectivity, included for comparison

Row | Ratio hCT/hAmylin funct. ([1]; hCTR funct. EC50 / hAmylin-R funct. EC50) | Ratio hCT/hAmylin funct. [1, 6] | Ratio hCT/hAmylin funct. [1, 7] | Ratio hCT/hAmylin binding [2, 8] | Ratio hCT/hAmylin binding [2, 9] | pIC50 ([3]; binding to rat amylin receptor, read-out: rAmylin-R bind IC50) | Ratio rCT/rAmylin binding ([3]; rat binding selectivity, rCTR IC50 / rAmylin-R IC50) | Ratio hCT/hAmylin funct. ([1]; hCTR funct. EC50 divided by hAmylin-R funct. EC50) | ThT pH 4.0 lag time (h) [4] | solubility at 18 h ([5]; bistrispropane buffer, pH 6.5, read-out: Solubility pH 6.5 Concentration) | solubility at 18 h ([5]; bistrispropane buffer, pH 7.5, read-out: Solubility pH 7.5 Concentration) | solubility at 18 h ([5]; bistrispropane buffer, pH 6.0, read-out: Solubility pH 6.0 Concentration) | solubility at 18 h ([5]; bistrispropane buffer, pH 7.0, read-out: Solubility pH 7.0 Concentration) | solubility at 18 h ([5]; bistrispropane buffer, pH 8.0, read-out: Solubility pH 8.0 Concentration) | solubility at 18 h ([5]; glycylglycine buffer, pH 3.0, read-out: Solubility pH 3.0 Concentration) | solubility at 18 h ([5]; glycylglycine buffer, pH 4.0, read-out: Solubility pH 4.0 Concentration) | solubility at 18 h ([5]; glycylglycine buffer, pH 5.0, read-out: Solubility pH 5.0 Concentration) | SMILES
1 | 1.0 | 1.0 | 1.0 | 1.4 | 1.4 | 8.89 | 3.6 |  |  |  |  |  |  |  |  |  |  | CC(C)C[C@H](NC(=O)[C@H](CCCNC(=N)N)NC(=O)[C@H](CCC(N)=O)NC(=O)[C@@H](NC(=O)[C@H](C)NC(=O)[C@@H]1CSSC[C@H](NC(=O)[C@H](CCCCN)NC(=O)CC[C@H](NC(=O)CCCCCCCCCCCCCCCCCCC(=O)O)C(=O)O)C(=O)N[C@@H](CC(N)=O)C(=O)N[C@@H]([C@@H](C)O)C(=O)N[C@@H](C)C(=O)N[C@@H]([C@@H](C)O)C(=O)N1)[C@@H](C)O)C(=O)N[C@@H](C)C(=O)N[C@@H](CCC(=O)O)C(=O)N[C@@H](Cc1ccccc1)C(=O)N[C@@H](CC(C)C)C(=O)N[C@@H](CCCNC(=N)N)C(=O)N[C@@H](Cc1c[nH]cn1)C(=O)N[C@@H](CO)C(=O)N[C@@H](CO)C(=O)N1CCC[C@H]1C(=O)N[C@@H](CC(N)=O)C(=O)N[C@@H](Cc1ccccc1)C(=O)NCC(=O)N[C@@H](C)C(=O)N1CCC[C@H]1C(=O)N[C@@H](CC(C)C)C(=O)N[C@@H](CO)C(=O)N[C@@H](CO)C(=O)N[C@H](C(=O)N[C@@H](CC(N)=O)C(=O)N[C@H](C(=O)NCC(=O)N[C@@H](CO)C(=O)N[C@@H](CC(N)=O)C(=O)N[C@H](C(=O)N1CCC[C@H]1C(N)=O)[C@@H](C)O)C(C)C)[C@@H](C)O [Example 5] ({C20 diacid-γGlu}-KCNTATCATQRLAEFLRHSSPNFGAPLSSTNVGSNTP-NH2; disulfide 2-7)
2 |  | 7.4 | 7.4 | 8.0 | 8.0 |  |  | 7.4 | 19 h | ≥ 200 µM | ≥ 200 µM | ≥ 200 µM | ≥ 200 µM | ≥ 200 µM | ≥ 200 µM | ≥ 200 µM | ≥ 200 µM | CC[C@H](C)[C@H](NC(=O)[C@H](C)NC(=O)CNC(=O)[C@H](Cc1ccccc1)NC(=O)[C@H](CC(N)=O)NC(=O)[C@@H]1CCCN1C(=O)[C@H](CO)NC(=O)[C@H](CO)NC(=O)[C@H](Cc1c[nH]cn1)NC(=O)[C@H](CCCNC(=N)N)NC(=O)[C@H](CC(C)C)NC(=O)[C@H](Cc1ccccc1)NC(=O)[C@H](CCC(=O)O)NC(=O)[C@H](C)NC(=O)[C@H](CC(C)C)NC(=O)[C@H](CCCNC(=N)N)NC(=O)[C@H](CCC(N)=O)NC(=O)[C@@H](NC(=O)[C@H](C)NC(=O)[C@@H]1CSSC[C@H](NC(=O)[C@H](CCCCN)NC(=O)CC[C@H](NC(=O)CCCCCCCCCCCCCCCCCCC(=O)O)C(=O)O)C(=O)N[C@@H](CC(N)=O)C(=O)N[C@@H]([C@@H](C)O)C(=O)N[C@@H](C)C(=O)N[C@@H]([C@@H](C)O)C(=O)N1)[C@@H](C)O)C(=O)N1CCC[C@H]1C(=O)N[C@@H](CO)C(=O)N[C@@H](CO)C(=O)N[C@H](C(=O)N[C@@H](CC(N)=O)C(=O)N[C@H](C(=O)NCC(=O)N[C@@H](CO)C(=O)N[C@@H](CC(N)=O)C(=O)N[C@H](C(=O)N[C@@H](Cc1ccc(O)cc1)C(N)=O)[C@@H](C)O)C(C)C)[C@@H](C)O [Example 9]
